Source: patent US20250352539A1, “COMBINATION THERAPY FOR TREATING CANCER” (AstraZeneca AB, priority 2022, published 2025)

Key:
Format in all cases: cell-based
HCC1395 = assay: 10-day Cell Titre Glo combination screen; settings: Homo sapiens; HCC1395 breast; monotherapy; read-out: mono AC50
Method in brief: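 Cells were exposed to pairwise drug combinations in a 6×6 dose matrix for 10 days, and viability was read by CellTiter-Glo ATP luminescence. Values were normalised to day-zero and DMSO controls, with synergy scored against a Highest Single Agent model (HSA Volume) and as combination index at a chosen iso-effect level.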

T98G = assay: 7 days treatment combination assay in glioblastoma cell lines (Hoeschst positive nuclei count); settings: Homo sapiens, 168 h, Adult GBM
Method: (§1) The assay was carried out in the following glioblastoma cell lines: • U87 • U87 R132H • T98G • SJ-G2 ctrl • SJ-G2 IDH using AZD6738 and AZD9574
(§2) The cells were seeded the day before drug treatment in 150 μl per well of 96-well plate. For SJ-G2 cells, the plates were coated with poly-Lysine solution for 15 minutes, washed twice with sterile water and dried for 1 hour.
(§3) The seeding numbers were (cells per well): U87-500; T98G-500; SJ-G2 ctrl-1000; SJ-G2 IDH.
(§4) The compounds were added via a drug dispenser according to the following scheme:
(§5) after 7 Days: • (a) for SJ-G2, 75 μl Cell Titer Glow 2.0 solution (Promega) was added and incubated for 15 minutes at 37° C. The cells were then read using a plate reader. • (b) for U87 and T98G, 75 μl of 37% formaldehyde was added and fixed for 20 minutes at room temperature. This was then washed twice with PBS, followed by Hoeschst staining for 1 hour at room temperature (Hoeschst 1:10000 in PBS). This was then washed twice in PBS and the plates sealed. The plates were then imaged on Cell Insight with 10× magnification at the 25 position. Hoeschst positive nuclei were identified as objects, and cell survival was analysed by counting objects (Hoeschst positive nuclei) with the corresponding settings for U87 or T98G.
(§6) An analysis of drug synergy was then carried out to yield a HSA score

U87 IDH WT = assay: as above; settings: 168 h, Adult GBM
Method: as §1, §2, §3, §4, §5, §6

U87 IDHm = assay: as above; settings: 168 h, Adult GBM
Method: as §1, §2, §3, §4, §5, §6

SJ-G2 IDHm = assay: 7 days treatment combination assay in glioblastoma cell lines (Cell Titer Glow 2.0); settings: 168 h, paediatric GBM
Method: as §1, §2, §3, §4, §5, §6

SJ-G2 WT = assay: as above; settings: 168 h, paediatric GBM
Method: as §1, §2, §3, §4, §5, §6

[1] = system: SUM149PT 53BP1 KO cell pools; assay: Clonogenic proliferation assay (14 days, SRB); settings: Homo sapiens; SUM149PT 53BP1 KO; monotherapy; read-out: IC50, clonogenic growth
Method: (§7) Parental BRCA1 mutant SUM149PT breast cancer cell line (Elstrodt 2006) were obtained from AstraZeneca Cell Bank at Alderley Park, Macclesfield. Cells were routinely grown in Ham's F12 media containing 5% foetal calf serum, 1% glutamine (2 mM), 500 ng/ml hydrocortisone and 5% insulin. SUM149PT 53BP1 WT (CNTR) and 53BP1 null (KO) cell pools were generated by CRISPR-Cas9 technology. Short guide (sg) RNA targeting TP53BP1 on exon 10 (GAGTAGATCGGAAAGCATC) and a non-targeting CNTR guide (GAGTAGATCGGAAAGCATC) were designed and cloned into a lentiviral vector containing a mClover3 cassette for green fluorescence signal and hygromycin cassette for selection (pKLV2-U6gRNA (Bbsl)-EF1a-mClover3-T2A-HygR-W). Lentiviruses were generated from both KO and CNTR (sg) RNA and Cas9 (pKLVEF1a-Cas9Bsd-W) plasmids and parental cells were transduced first with Cas9 lentiviruses followed by blasticidin selection and then with KO and CNTR lentiviruses followed by hygromycin selection. Loss of 53BP1 was verified by analysing 53BP1 protein expression from whole cell lysates by western blotting (Novus, NB100-304, 1:1000 dilution).
(§8) Cells were seeded onto 6-well plates, three replicates per cell line, and 24 hours later the cells were dosed with AZD6738/AZD5305. For monotherapies the cells were dosed with a 6-point concentration response of AZD6738 (0 to 0.64 μM) or AZD5305 (0 to 1 μM). For combination treatments single dose of AZD5305 (10 nM) was used with a 5-point concentration response of AZD6738 (0 to 0.64 μM) for 53BP1 KO cells. Cells were grown for 14 days for colony formation without media changes. Cells were fixed with 10% TCA (Tricloroacetic acid). 14 days after dosing any formed colonies were stained with 0.057% SRB (sulforhodamine B acid), imaged with GelCount™ (Oxford OPTRONIX) at 600 dpi resolution and the stained colony growth intensity was measured using plate reader with OD @[…]. Dose response curves were generated and IC50 concentrations were calculated using GraphPad PRISM software.

[2] = system: SUM149PT 53BP1 WT (CNTR) cells; assay: Clonogenic proliferation assay (14 days, SRB); settings: Homo sapiens; SUM149PT CNTR; monotherapy; read-out: IC50, clonogenic growth
Method: as §7, §8

In the case of `C[C@@H]1COCCN1c1cc(C2([S@](C)(=N)=O)CC2)nc(-c2ccnc3[nH]ccc23)n1` [AZD6738, 4-{4-[(3R)-3-Methylmorpholin-4-yl]-6-[1-((R)—S-methylsulfonimidoyl)cyclopropyl]pyrimidin-2-yl}-1H-pyrrolo[2,3-b]-pyridine], the AC50 (HCC1395) is reported as 814 nM, the IC50 (T98G) is reported as 213 nM and the IC50 (U87 IDH WT) is reported as 649 nM. For the same molecule, the IC50 (U87 IDHm) was 766 nM, the IC50 (SJ-G2 IDHm) was 308 nM and the IC50 (SJ-G2 WT) was 160 nM. It also gave an IC50 [1] of about 630 nM and an IC50 [2] of about 630 nM.
